The subject of one data set is dogs. The following applies: dog, in vivo, iv, 100 mg/kg. The text has this:
Since the toxicity of (2R)-2-propyloctanoic acid, a salt thereof or a prodrug thereof is extremely low, it can be considered to be sufficiently safe for medicinal uses.

The subject of data set [1] is spinal nerve ligation model rats. Kind of data set: Escape threshold of contact stimulus, von Frey filaments (contact allodynia) in rat spinal nerve ligation model. The format is in vivo. The protocol:
(§1) Male rats were used in the experiment. Spinal nerve ligation models were made in accordance with the method of Kim & Chung (Kim, S. H. & Chung, J. M., An experimental model for peripheral neuropathy produced by segmental spinal nerve ligation in the rat, Pain, 50, 355-363, 1992). Namely, the fifth lumber nerve in one side was strongly ligated with silken threads.
(§2) More specifically, the models were made in the following manner.
(§3) After intraperitoneally administering 40 mg/kg (liquid volume 0.8 ml/kg) of pentobarbital (Nenbutal Injection (trade name), Dainippon Pharmaceutical Co., Ltd.), a rat was fixed in the dorsal position under anesthesia and the abdomen was incised in the median line with scissors. The intestines and the like were pushed aside with sterilized gauze and the abdominal aorta and the abdominal vein were confirmed. Then, the muscle located immediately below the iliolumbar vein was cleaved with tweezers. After confirming the fourth lumber nerve and the fifth lumber nerve in the muscle, the fifth lumber nerve (L5) was ligated with 6-0 silken threads. Subsequently, the intestines having been pushed away were returned to the original positions. 5 ml of physiological saline (otsuka Pharmaceutical Factory, Inc.) containing ampicillin sodium (Viccillin for Injection (trade name), Meiji Seika Kaisha, Ltd.) (ampicillin concentration: 20 mg/ml) was poured into the peritoneal cavity, and the abdominal muscles and skin were sutured with a nylon thread.
From immediately after the spinal nerve ligation, 30 mg/kg of (2R)-2-propyloctanoic acid was orally administered once a day for 14 days (14 times in total). Also, vehicle control was administered in the same manner.
(3-2) Measurement of Escape Threshold of Contact Stimulus (Evaluation of Contact Allodynia)
On the next day of the final administration, the escape threshold of a contact stimulus was measured. Namely, filaments (von Frey filaments: VFF) were pressed against right and left footpads from the lower side. Then, the VFF indication at the occurrence of an escape response was recorded and converted into weight (g).

Data set [2] shares this test system. Kind of data set: Latent time of pain response to heat stimulus (heat hyperalgesia) in rat spinal nerve ligation model. Format: in vivo. As to the method:
as §1, §2, §3
From immediately after the spinal nerve ligation, 30 mg/kg of (2R)-2-propyloctanoic acid was orally administered once a day for 14 days (14 times in total). Also, vehicle control was administered in the same manner. […]
On the next day of the final administration, the latent time of heat stimulus was measured. Namely, right and left footpads were irradiated with infrared light of a halogen lamp from the lower side, and the time until the occurrence of an escape response (the latent time of pain reaction: sec) was measured.

Where [3] appears, read: 30 mg/kg orally once a day for 14 days from immediately after L5 ligation, measured next day after final administration, injured (operated-on) side.
Where [4] appears, read: 30 mg/kg orally once a day for 14 days from immediately after L5 ligation, measured next day after final administration, normal (opposite) side.
[5] abbreviates: 30 mg/kg orally, 14 days, injured side vs vehicle control, p<0.01 Welch test.

From patent US8975298B2, “Therapeutic agent for pain” (ONO Pharmaceutical Co., Ltd., priority 2005, dated 2015) come the findings set out here.

Several values for one entry are separate records, joined by “and”; a condition that tells them apart may be missing. Equal entries are not always repeated.

Regarding `CCCCCC[C@@H](CCC)C(=O)O` [(2R)-2-propyloctanoic acid], the Fatal cases entry with dogs is recorded as “no fatal case was observed”. Further, the “Escape threshold of contact stimulus (g) Injured side” value in data set [1] (setting [3]) is 14.7 g and 14.7 ± 12.7 g. The “Escape threshold of contact stimulus (g) Normal side” value in data set [1] (setting [4]) is 66.1 g and 66.1 ± 29.8 g. For the same compound, the “Analgesic effect on contact allodynia” value in data set [1] (setting [5]) is “an analgesic effect on contact allodynia was confirmed”. Besides, in data set [2] (setting [3]), the “Latent time of pain response (sec) Injured side” value is 13.61 s and 13.61 ± 6.76 s. The “Latent time of pain response (sec) Normal side” value in data set [2] (setting [4]) was 19.00 s and 19.00 ± 5.58 s. For the same compound, the “Analgesic effect on heat hyperalgesia” value in data set [2] (setting [5]) is on record as “an analgesic effect on heat hyperalgesia was confirmed”.
